# Tests used:
# GST-JAK2(808-1132) = molecular target: T1, GST-JAK2(808-1132) (Homo sapiens, UniProt O60674); assay: JAK2 kinase assay (Caliper mobility shift, LabChip 3000); type: biochemical
# T1 construct: GST-JAK2(808-1132); purchased Invitrogen (Carlsbad, USA) #4288
# In short: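 Eight-point compound series (final 10–0.003 μM) tested on purchased GST-JAK2 kinase domain (808-1132). Peptide FITC-JAK3tide plus ATP reacted 60 min, 30 °C, then quenched with EDTA; turnover from charge-based separation of substrate and product.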
# [1] = system: JAK1/JAK2-dependent nuclear translocation of STAT1-GFP in HT1080 fibrosarcoma cells; assay: STAT1 nuclear translocation assay (Cellomics), IFN-γ stimulated HT1080 STAT1-GFP cells; type: cell-based; settings: Homo sapiens, HT-1080, STAT1 translocation pathway
# In short: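 IC50 derived from percent nuclear STAT1-GFP translocation, computed from nuclear minus cytoplasmic GFP intensity against untreated baseline and DMSO-stimulated control. Stable HT1080 STAT1-GFP cells received compound (0.003–10 μM, 0.1% DMSO) 30 min ahead of a 2 h 100 ng/ml IFN-γ stimulus, then fixation and Hoechst nuclear masking.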
# T1 sequence (O60674 808-1132): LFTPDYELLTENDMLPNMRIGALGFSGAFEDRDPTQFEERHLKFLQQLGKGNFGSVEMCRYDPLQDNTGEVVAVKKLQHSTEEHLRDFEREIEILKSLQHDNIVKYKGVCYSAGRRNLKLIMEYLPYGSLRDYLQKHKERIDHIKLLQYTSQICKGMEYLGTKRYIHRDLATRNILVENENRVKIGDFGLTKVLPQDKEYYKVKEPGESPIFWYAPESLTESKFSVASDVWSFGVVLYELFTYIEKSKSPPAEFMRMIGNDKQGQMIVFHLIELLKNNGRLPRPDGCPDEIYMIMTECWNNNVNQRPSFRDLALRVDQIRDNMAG
IC50 (GST-JAK2(808-1132)) [nM],IC50 [1] [nM],Structure (SMILES)
3.7,285,"CC(=O)N1CCN(Cc2ccc(Nc3ncc4ccn(-c5cc(F)c(CN6CCNC(=O)C6)c(F)c5)c4n3)cc2)CC1 [Example 339, 4-(4-{2-[4-(4-Acetyl-piperazin-1-ylmethyl)-phenylamino]-pyrrolo[2 3-d]pyrimidin-7-yl}-2,6-difluoro-benzyl)-piperazin-2-one]"
6.4,570,"Cc1ccc(Nc2ncc3ccn(-c4cc(F)c(CN5CCN(C)C(=O)C5)c(F)c4)c3n2)cc1C [Example 310, 4-{4-[2-(3,4-Dimethyl-phenylamino)-pyrrolo[2,3-d]pyrimidin-7-yl]-2,6-difluoro-benzyl}-1-methyl-piperazin-2-one]"
4.7,360,CN1CCN(c2ccc(Nc3ncc4ccn(-c5cc(F)c(C(=O)N6CCOCC6)c(F)c5)c4n3)cn2)CC1 [Example 221]
1050,10000,"O=C(c1c(F)cc(-n2ccc3cnc(Nc4ccncn4)nc32)cc1F)N1CCOCC1 [Example 218, {2,6-Difluoro-4-[2-(pyrimidin-4-ylamino)-pyrrolo[2,3-d]pyrimidin-7-yl]-phenyl}-morpholin-4-yl-methanone]"
< 3,50,"C[C@@H]1CN(c2ccc(Nc3ncc4ccn(-c5cc(F)c(CN6CCOCC6)c(F)c5)c4n3)cn2)C[C@H](C)N1 [Example 267, [7-(3,5-Difluoro-4-morpholin-4-ylmethyl-phenyl)-7H-pyrrolo[2,3-d]pyrimidin-2-yl]-[6-(cis-3,5-dimethyl-piperazin-1-yl)-pyridin-3-yl]-amine]"
28.5,3920,"CCN1CCN(Cc2ccc(Nc3ncc4ccn(-c5cc(F)c(C(=O)N6CCN(C)CC6)c(F)c5)c4n3)cc2)CC1 [Example 191, (4-{2-[4-(4-Ethyl-piperazin-1-ylmethyl)-phenylamino]-pyrrolo[2,3-d]pyrimidin-7-yl}-2,6-difluoro-phenyl)-(4-methyl-piperazin-1-yl)-methanone]"
420,10000,"O=C(c1c(F)cc(-n2ccc3cnc(Nc4ccccn4)nc32)cc1F)N1CCOCC1 [Example 215, {2,6-Difluoro-4-[2-(pyridin-2-ylamino)-pyrrolo[2,3-d]pyrimidin-7-yl]-phenyl}-morpholin-4-yl-methanone]"
7.2,520,"C[C@@H]1CN[C@@H](C)CN1c1ccc(Nc2ncc3ccn(-c4ccc(S(C)(=O)=O)cc4)c3n2)cn1 (racemic) [Example 274, [6-((2R,5S)-2,5-Dimethyl-piperazin-1-yl)-pyridin-3-yl]-[7-(4-methanesulfonyl-phenyl)-7H-pyrrolo[2,3-d]pyrimidin-2-yl]-amine]"
11,880,COc1ccc(Nc2ncc3ccn(-c4cc(F)c(C(=O)N5CCOCC5)c(F)c4)c3n2)cn1 [Example 220]
< 3,37,"Cc1ccc(Nc2ncc3ccn(-c4cc(F)c(CN5CCS(=O)(=O)CC5)c(F)c4)c3n2)cc1C [Example 290, (3,4-Dimethyl-phenyl)-{7-[4-(1,1-dioxido-thiomorpholin-4-ylmethyl)-3,5-difluoro-phenyl]-7H-pyrrolo[2,3-d]pyrimidin-2-yl}-amine]"
3.9,135,"CC(=O)N1CCN(Cc2ccc(Nc3ncc4ccn(-c5ccc(C(=O)N6CCOCC6)cc5)c4n3)cc2)CC1 [Example 338, 1-[4-(4-{7-[4-(Morpholine-4-carbonyl)-phenyl]-7H-pyrrolo[2,3-d]pyrimidin-2-ylamino}-benzyl)-piperazin-1-yl]-ethanone]"
7.2,270,"O=C1CN(Cc2c(F)cc(-n3ccc4cnc(Nc5ccc(CN6CCN(C7CC7)CC6)cc5)nc43)cc2F)CCN1 [Example 340, 4-(4-{2-[4-(4-Cyclopropyl-piperazin-1-ylmethyl)-phenylamino]-pyrrolo[2,3-d]pyrimidin-7-yl}-2,6-difluoro-benzyl)-piperazin-2-one]"
8.4,150,"C[C@@H]1CN(c2ccc(Nc3ncc4ccn(-c5cc(F)c(C(=O)N6CCOCC6)c(F)c5)c4n3)cn2)C[C@H](C)N1 [Example 266, (4-{2-[6-(cis-3,5-Dimethyl-piperazin-1-yl)-pyridin-3-ylamino]-pyrrolo[2,3-d]pyrimidin-7-yl}-2,6-difluoro-phenyl)-morpholin-4-yl-methanone]"

# The next lines start with the compound.
Structure (SMILES),IC50 (GST-JAK2(808-1132)) [nM],IC50 [1] [nM]
"CN(C)CCN(C(=O)c1cccc(Nc2ncc3ccn(-c4ccc(S(C)(=O)=O)cc4)c3n2)c1)c1ccccc1 [Example 48, N-(2-Dimethylamino-ethyl)-3-[7-(4-methanesulfonyl-phenyl)-7H-pyrrolo[2,3-d]pyrimidin-2-ylamino]-N-phenyl-benzamide]",27,4210
"CC(C)Oc1ccc(Nc2ncc3ccn(-c4ccc(CN5CCOCC5)c(Cl)c4)c3n2)cc1 [Example 110, [7-(3-Chloro-4-morpholin-4-yl methyl-phenyl)-7H-pyrrolo[2,3-d]pyrimidin-2-yl]-(4-isopropoxy-phenyl)-amine]",13.5,1110
"CC(C)Oc1ccc(Nc2ncc3ccn(-c4ccc(CCN5CCOCC5)cc4)c3n2)cc1 [Example 115, (4-Isopropoxy-phenyl)-{7-[4-(2-morpholin-4-yl-ethyl)-phenyl]-7H-pyrrolo[2,3-d]pyrimidin-2-yl}-amine]",16,714
"COCc1ccc(Nc2ncc3ccn(-c4cc(F)c(C(=O)N5CCN(C)CC5)c(F)c4)c3n2)cc1 [Example 189, {2,6-Difluoro-4-[2-(4-methoxymethyl-phenylamino)-pyrrolo[2,3-d]pyrimidin-7-yl]-phenyl}-(4-methyl-piperazin-1-yl)-methanone]",9.5,846
"O=C(c1ccc(Nc2ncc3ccn(-c4cc(F)c(CN5CCCC5)c(F)c4)c3n2)cc1)N1CCOCC1 [Example 178, {4-[7-(3,5-Difluoro-4-pyrrolidin-1-ylmethyl-phenyl)-7H-pyrrolo[2,3-d]pyrimidin-2-ylamino]-phenyl}-morpholin-4-yl-methanone]",9.1,790
"Cc1cc(Nc2ncc3ccn(-c4ccc(C(=O)N5CCOCC5)c(Cl)c4)c3n2)ccc1F [Example 90, {2-Chloro-4-[2-(4-fluoro-3-methyl-phenylamino)-pyrrolo[2,3-d]pyrimidin-7-yl]-phenyl}-morpholin-4-yl-methanone]",3.4,715
"CS(=O)(=O)c1ccc(-n2ccc3cnc(Nc4cccc(Cn5ccnc5)c4)nc32)cc1 [Example 47, (3-Imidazol-1-ylmethyl-phenyl)-[7-(4-methanesulfonyl-phenyl)-7H-pyrrolo[2,3-d]pyrimidin-2-yl]-amine]",< 3,73
"COCc1ccc(Nc2ncc3ccn(-c4cc(F)c(CN5CCOCC5)c(F)c4)c3n2)cc1 [Example 135, [7-(3,5-Difluoro-4-morpholin-4-ylmethyl-phenyl)-7H-pyrrolo[2,3-d]pyrimidin-2-yl]-(4-methoxymethyl-phenyl)-amine]",4.9,420
"O=C(Cc1ccc(-n2ccc3cnc(Nc4ccccc4)nc32)cc1)N1CCOCC1 [Example 143, 1-Morpholin-4-yl-2-[4-(2-phenylamino-pyrrolo[2,3-d]pyrimidin-7-yl)-phenyl]-ethanone]",< 3,195
"O=S1(=O)CCN(Cc2c(F)cc(-n3ccc4cnc(Nc5ccccn5)nc43)cc2F)CC1 [Example 181, {7-[4-(1,1-Dioxido-thiomorpholin-4-ylmethyl)-3,5-difluoro-phenyl]-7H-pyrrolo[2,3-d]pyrimidin-2-yl}-pyridin-2-yl-amine]",15.5,16600
"O=C(c1ccc(Nc2ncc3ccn(-c4ccc(CN5CCS(=O)(=O)CC5)cc4)c3n2)cc1)N1CCOCC1 [Example 153, (4-{7-[4-(1,1-Dioxido-thiomorpholin-4-ylmethyl)-phenyl]-7H-pyrrolo[2,3-d]pyrimidin-2-ylamino}-phenyl)-morpholin-4-yl-methanone]",< 3,17.5
"O=C(c1ccc(Nc2ncc3ccn(-c4cc(F)c(CN5CCOCC5)c(F)c4)c3n2)cc1)N1CCOCC1 [Example 138, {4-[7-(3,5-Difluoro-4-morpholin-4-ylmethyl-phenyl)-7H-pyrrolo[2,3-d]pyrimidin-2-ylamino]-phenyl}-morpholin-4-yl-methanone]",< 3,165
"CS(=O)(=O)c1ccc(-n2ccc3cnc(Nc4ccc(OCCN5CCOCC5)cc4)nc32)cc1 [Example 34, [7-(4-Methanesulfonyl-phenyl)-7H-pyrrolo[2,3-d]pyrimidin-2-yl]-[4-(2-morpholin-4-yl-ethoxy)-phenyl]-amine]",< 3,69.5
"COc1ccc(Nc2ncc3ccn(-c4ccc(S(C)(=O)=O)cc4)c3n2)cc1OCCN1CCOCC1 [Example 29, [7-(4-Methanesulfonyl-phenyl)-7H-pyrrolo[2,3-d]pyrimidin-2-yl]-[4-methoxy-3-(2-morpholin-4-yl-ethoxy)-phenyl]-amine]",< 3,91
"CS(=O)(=O)c1ccc(-n2ccc3cnc(Nc4ccc(C#N)cc4)nc32)cc1 [Example 95, 4-[7-(4-Methanesulfonyl-phenyl)-7H-pyrrolo[2,3-d]pyrimidin-2-ylamino]-benzonitrile]",16.5,2360
"Cc1ccc(Nc2ncc3ccn(-c4ccc(CN5CCOCC5)cc4)c3n2)cc1 [Example 146, [7-(4-Morpholin-4-ylmethyl-phenyl)-7H-pyrrolo[2 3-d]pyrimidin-2-yl]-p-tolyl-amine]",30,2510
